Patent US8258178B2, “Agents for preventing attachment of barnacle consisting of organic solvent extracts of red alga Laurencia sp. and compounds isolated therefrom” (Central Research Institute of Electric Power Industry, priority 2007, dated 2012)
≈ marks a conversion by molar mass, not a printed value. Read-outs that look alike come from different tables or passages of the source.

Tests used:
[1] = tested on: cypris larvae of Amphibalanus amphitrite; assay: whole plant or invertebrate; assay type: in vivo; details: for EC50: Amphibalanus amphitrite, 48 h, read-out: EC50 of attachment•metamorphosis of cypris larvae
Experimental: (§1) Adult samples of Amphibalanus amphitrite collected from Lake Hamanako, Shizuoka-ken in the breeding season (May to November in Hamanakako) were subject to drying stimulus for about 12 hours (drying stimulus refers to taking out barnacles out of the breeding water and let them dry), and then they were put into a water bath, thereby allowing eggs to hatch into nauplius larvae (if the adults are not in a breeding season, they are subject to food satiation breeding for about two weeks at a water temperature of 20° C. to 25° C., and after subjecting to drying stimulus for about 12 hours, they are housed in a water bath to allow eggs to hatch into nauplius larvae). […] At 5th day of breeding, the nauplius larvae metamorphosed into cypris larvae, which were collected using light or the like and refrigerated (4° C.) for two days, and then used for attachment•metamorphosis inhibition tests.
(§2) Into a 24-well multi plate made of polystyrene (Corning, Inc.) was put an ethanol solution in which a methanol extract of red algae laurencia sp. of the present invention or the compound of the present invention was dissolved, and allowed to dry, followed by charging of 2 mL filtered seawater. Six individual cypris larvae of Amphibalanus amphitrite were put into each well and bred at 25° C. for two to five days, and the number of individuals that metamorphosed from cypris larvae into barnacle immatures while attaching to the plate surface, the number of individuals not attached thereto and still swimming as cypris larvae, and the number of dead individuals were counted under a stereoscopic microscope. The tests were conducted using four wells each for a same concentration of the compound of the present invention, and the tests were repeated three or more times. […] Furthermore, the concentration at which the ratio of the number of attaching•metamorphosing individuals to the number of all the subject individuals after 2 days is one-half in comparison with the case not having the compounds of the present invention, was represented by EC50. Concentrations (μg/ml) were represented by the value obtained by dividing the amount of the methanol extract of red algae laurencia sp. (μg) or the amount of the compound (μg) added per well by 2 mL of filtered seawater added per well.

[2] = in vivo; assay type: in vivo; details: Amphibalanus amphitrite (barnacle, cypris larvae), in vivo; concentration at which dead individuals after 5 days account for 50% of all individuals; read-out: LC50 (toxicity to larvae)
Experimental: as §1, §2

[3] = Non-Patent Document 7; cited from earlier work
[4] = tested on: barnacle; details: reported in Non-Patent Documents 1 and 2; cited from earlier work
[5] = after 2 days, concentration at which ratio of attaching•metamorphosing individuals is one-half of the case without compound, 25° C., 24-well plate, 2 mL filtered seawater

CC[C@@H]1[C@@H]2[C@H]3OC(C=C=CBr)C[C@H]3O[C@]2(O)[C@@H](Br)C[C@H]1Br (stereo partly drawn) [Hachijojimallene A]
EC50 of attachment•metamorphosis of cypris larvae [1, 5]: 0.15 µg/mL
LC50 (toxicity to larvae) ([1]; concentration at which dead individuals after 5 days account for 50% of all individuals): 9.8 µg/mL (≈ 20.1 µM)

C#C/C=C/C[C@@H](OC(C)=O)[C@H]1C/C=C\C[C@H](Br)[C@@H](CC)O1 [Laurencin]
EC50 of attachment•metamorphosis of cypris larvae [1, 5]: 0.23 µg/mL
toxicity to larvae ([1]; at 100 μg/mL): no toxicity at all

CC(C)=CCC[C@@](C)(O)[C@@H](O)CC[C@](C)(O)[C@H]1CC[C@H]2O[C@@H]([C@]3(C)CC[C@@H](Br)C(C)(C)O3)CC[C@]2(C)O1 [Magireol A]
LC50 at 5 days [2]: 14.4 µg/mL (≈ 24.4 µM)
EC50 [1]: 0.3 µg/mL (≈ 0.509 µM)

CC/C(Br)=C\C=C\[C@@H](O)[C@H](Br)[C@@H]1O[C@@H](C=C=CBr)C[C@@H]1O [Omaezallene]
LC50 at 5 days [2]: 3.4 µg/mL (≈ 6.98 µM)
EC50 [1, 5]: 0.22 µg/mL

CC(C)(O)[C@H]1CC[C@](C)([C@@H](O)CC[C@](C)(O)[C@H]2CC[C@H]3O[C@@H]([C@]4(C)CC[C@@H](Br)C(C)(C)O4)CC[C@]3(C)O2)O1 [Thyrsiferol]
LC50 at 5 days [2]: 2.5 µg/mL (≈ 4.13 µM)
EC50 [1]: 0.11 µg/mL (≈ 0.182 µM)
cytotoxicity [3]: known to have cytotoxicity

C=C1C[C@H](O)[C@H](Br)C(C)(C)[C@]12CC=C(C)CC2 [deschloroelatol]
barnacle attachment inhibitory activity [4]: have a barnacle attachment inhibitory activity

C=C1C[C@H](O)[C@H](Br)C(C)(C)[C@@]12CCC(C)=C(Cl)C2 [elatol]
barnacle attachment inhibitory activity [4]: have a barnacle attachment inhibitory activity

C=C1[C@@H](C)CC[C@@]1(C)c1cc(Br)c(C)cc1O [isolaurinterol]
barnacle attachment inhibitory activity [4]: possess a barnacle attachment inhibitory activity

Cc1cc(O)c([C@]2(C)CC[C@@H]3C[C@@]32C)cc1Br [laurinterol]
barnacle attachment inhibitory activity [4]: possess a barnacle attachment inhibitory activity
